This note sets out measurements from patent publication US5541163A, “Renin inhibiting N-(2-amino-2-oxoethyl)butanediamide derivatives” (Bio-Mega/Boehringer Ingelheim Research Inc., priority 1993, dated 1996).

For the experiment, the target named is T1, human renin (Homo sapiens, UniProt P00797).
T1 construct: A human plasma pool is used as the source of both the substrate (angiotensinogen) and the enzyme (renin); from tissue; host or cells: human plasma pool
T1 sequence (P00797 67-406): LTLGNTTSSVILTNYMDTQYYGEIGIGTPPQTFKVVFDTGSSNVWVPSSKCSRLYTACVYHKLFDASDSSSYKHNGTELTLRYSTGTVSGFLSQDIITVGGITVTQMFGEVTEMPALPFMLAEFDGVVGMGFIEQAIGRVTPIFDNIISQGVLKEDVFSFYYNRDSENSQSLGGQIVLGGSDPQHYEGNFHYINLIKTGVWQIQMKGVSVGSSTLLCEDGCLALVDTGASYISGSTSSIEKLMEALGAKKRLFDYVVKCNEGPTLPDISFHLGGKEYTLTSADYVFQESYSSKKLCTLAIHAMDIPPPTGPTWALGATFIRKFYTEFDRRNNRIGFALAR
Kind of experiment: Plasma renin assay (inhibition of human renin, angiotensin I by RIA). To be noted: human plasma pool, pH 6.0, 2 h incubation at 37°. Type of experiment: biochemical. The essentials: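 Pooled human plasma supplies both renin and angiotensinogen; inhibitor in MES/1% HSA buffer (1% DMSO final) incubated 2 h at 37° at pH 6.0. Angiotensin I generated quantified by radioimmunoassay, inhibition relative to no-inhibitor control, IC50 by nonlinear regression.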
The compound `CC(C)C[C@H](O)[C@H](O)[C@H](CC1CCCCC1)NC(=O)[C@@H](CC(=O)N(CC(=O)N(C)C)C[C@@H](C)c1ccccc1)Cc1csc(N)n1` [Compound 61, N^4-[2-(dimethylamino)-2-oxoethyl]-N^4-[2(S)-phenylpropyl]-N^1-[1(S)-(cyclohexylmethyl)-2(R),3(S)-dihydroxy-5-methylhexyl]-2(R)-[(2-amino-4-thiazolyl)methyl]-butanediamide] registered an IC50 of 3.5 nM.
`COCOC1CCN(C(=O)CN(CC2CCCCC2)C(=O)C[C@@H](Cc2csc(N)n2)C(=O)N[C@@H](CC2CCCCC2)[C@@H](O)[C@@H](O)CC(C)C)CC1` [Compound 62, N^4 -{2-[4-(methoxymethoxy)piperidinyl]-2-oxoethyl}-N^4-(cyclohexylmethyl)-N^1-[1(S)-(cyclohexylmethyl)-2(R),3(S)-dihydroxy-5-methylhexyl]-2(R)-[(2-amino-4-thiazolyl)methyl]-butanediamide] registered an IC50 of 3 nM.
Then `CC(C)C[C@H](O)[C@H](O)[C@H](CC1CCCCC1)NC(=O)[C@@H](CC(=O)N(CC(=O)N(C)CCc1ccccn1)[C@@H](C)C1CCCCC1)Cc1csc(N)n1` [Compound 63, N^4-[1(S)-cyclohexylethyl]-N^4 -{2-{methyl[2-(2-pyridinyl)ethyl]-amino}-2-oxoethyl}-N^1-[1(S)-(cyclohexylmethyl)-2(R),3(S)-dihydroxy-5-methylhexyl]-2(R)-[(2-amino-4-thiazolyl)methyl]butanediamide], with 1 nM; and `CC(C)C[C@H](O)[C@H](O)[C@H](CC1CCCCC1)NC(=O)[C@@H](CC(=O)N(CC(=O)N(C)C)Cc1ccccn1)Cc1csc(N)n1` [Compound 64, N^4-[2-(dimethylamino)-2-oxoethyl]-N^4-(2-pyridinylmethyl)-N^1-[1(S)-(cyclohexylmethyl)-2(R),3(S)-dihydroxy-5-methylhexyl]-2(R)-[(2-amino-4-thiazolyl)methyl]-butanediamide], with 10 nM.
The compound `CN(CCc1ccccn1)C(=O)CN(CC1CCCCC1)C(=O)C[C@@H](Cc1csc(N)n1)C(=O)N[C@@H](CC1CCCCC1)[C@@H](O)CSc1nnnn1C` [Compound 65, N^4-(cyclohexylmethyl)-N^4 -{2-{methyl-[2-(2-pyridinyl)ethyl]amino}-2-oxoethyl}-N^1 -{1(S)-(cyclohexylmethyl)-2(R)-hydroxy-3-[(l-methyl-1H-tetrazol-5-yl)thio]propyl}-2(R)-[(2-amino-4-thiazolyl)methyl]-butanediamide] registered a half-maximal inhibitory concentration (IC50) of 45 nM.
The value for `CC(C)C[C@H](O)[C@H](O)[C@H](CC1CCCCC1)NC(=O)[C@@H](CC(=O)N(CC(=O)N(C)CCc1ccccn1)CC1CCCCC1)Cc1cccnc1` [Compound 66, N^4-(cyclohexylmethyl)-N^4 -{2-{methyl-[2-(2-pyridinyl)ethyl]amino}-2-oxoethyl}-N^1-[1(S)-(cyclohexylmethyl)-2(R),3(S)-dihydroxy-5-methylhexyl]-2(R)-(3-pyridinylmethyl)-butanediamide] was 10 nM.
In turn, `CC(C)C[C@H](O)[C@H](O)[C@H](CC1CCCCC1)NC(=O)[C@@H](CC(=O)N(CC(=O)N1CCOCC1)CC1CCCCC1)Cc1ccccn1` [Compound 67, N^4-(cyclohexylmethyl)-N^4-(2-morpholino-2-oxoethyl)-N^1-[1(S)-(cyclohexylmethyl)-2(R),3(S)-dihydroxy-5-methylhexyl]-2(R)-(2-pyridinylmethyl)butanediamide] yielded an IC50 of 4 nM.
`CC(C)C[C@H](O)[C@H](O)[C@H](CC1CCCCC1)NC(=O)[C@@H](CC(=O)N(CC(=O)N(C)C)CC1CCCCC1)Cc1ccccn1` [Compound 68, N^4-(cyclohexylmethyl)-N^4-[2-(dimethylamino)-2-oxoethyl]-N^1-[1(S)-(cyclohexylmethyl)-2(R),3(S)-dihydroxy-5-methylhexyl]-2(R)-(2-pyridinylmethyl)butanediamide] returned a concentration for half-maximal inhibition (IC50) of 4 nM.
Then `CC(C)C[C@H](O)[C@H](O)[C@H](CC1CCCCC1)NC(=O)[C@@H](CC(=O)N(CC(=O)N(C)C)CC1CCCC1)Cc1cccnc1` [Compound 69, N^4-(cyclopentylmethyl)-N^4-[2-(dimethylamino)-2-oxoethyl]-N^1-[1(S)-(cyclohexylmethyl)-2(R),3(S)-dihydroxy-5-methylhexyl]-2(R)-(3-pyridinylmethyl)butanediamide], with 32 nM; and `CC(C)C[C@H](O)[C@H](O)[C@H](CC1CCCCC1)NC(=O)[C@@H](CC(=O)N(CC(=O)N(C)C)CC1CCCCCC1)Cc1cccnc1` [Compound 70, N^4-(cycloheptylmethyl)-N^4-[2-(dimethylamino)-2-oxoethyl]-N^1-[1(S)-(cyclohexylmethyl)-2(R),3(S)-dihydroxy-5-methylhexyl]-2(R)-(3-pyridinylmethyl)butanediamide], with 7 nM.
Then `CC(C)C[C@H](O)[C@H](O)[C@H](CC1CCCCC1)NC(=O)[C@@H](CC(=O)N(CC(=O)N(C)CCc1ccccn1)CC1CCCC1)Cc1csc(N)n1` [Compound 71, N^4-(cyclopentylmethyl)-N^4 -{2-{methyl[2-(2-pyridinyl)ethyl]-amino}-2-oxoethyl]-N^1-[1(S)-(cyclohexylmethyl)-2(R),3(S)-dihydroxy-5-methylhexyl]-2(R)-[(2-amino-4-thiazolyl)methyl]butanediamide], with 1 nM; and `CC(C)C[C@H](O)[C@H](O)[C@H](CC1CCCCC1)NC(=O)[C@@H](CC(=O)N(CC(=O)N(C)CCc1ccccn1)Cc1cccs1)Cc1csc(N)n1` [Compound 72, N^4 -{2-{methyl[2-(2-pyridinyl)ethyl]-amino}-2-oxoethyl}-N^4-(2-thienylmethyl)-N^1-[1(S)-(cyclohexylmethyl)-2(R),3(S)-dihydroxy-5-methylhexyl]-2(R)-[(2-amino-4-thiazolyl)methyl]-butanediamide], with 2 nM.
Then `Cc1cc(C)cc(CN(CC(=O)N(C)C)C(=O)C[C@@H](Cc2csc(N)n2)C(=O)N[C@@H](CC2CCCCC2)[C@@H](O)[C@@H](O)CC(C)C)c1` [Compound 73, N^4-[2-(dimethylamino)-2-oxoethyl]-N^4-[(3,5-dimethylphenyl)methyl]-N^1-[1(S)-(cyclohexylmethyl)-2(R),3(S)-dihydroxy-5-methylhexyl]-2(R)-[(2-amino-4-thiazolyl)methyl]butanediamide], with 3 nM.
For `CC(C)OC(=O)[C@H](O)[C@H](CC1CCCCC1)NC(=O)[C@@H](CC(=O)N(CC(=O)N(C)CCc1ccccn1)CC1CCCCC1)Cc1csc(N)n1` [Compound 74, N^4-(cyclohexylmethyl)-N^4 -{2-{methyl-[2-(2-pyridinyl)ethyl]amino}-2-oxoethyl}-N^1-[1(S)-(cyclohexylmethyl)-2(R)-hydroxy-3-(1-methylethoxy)-3-oxopropyl]-2(R)-[(2-amino-4-thiazolyl)methyl]butanediamide], half-maximal inhibition (IC50) required 18 nM.
With `CC(C)C[C@H](O)[C@H](O)[C@H](CC1CCCCC1)NC(=O)[C@@H](CC(=O)N(CC(=O)N(C)CCc1ccccn1)[C@@H](C)c1ccccc1)Cc1csc(N)n1` [Compound 75, N^4 -{2-{methyl[2-(2-pyridinyl)ethyl]-amino}-2-oxoethyl}-N^4-[1(S)-phenylethyl]-N^1-[1(S)-(cyclohexylmethyl)-2(R),3(S)-dihydroxy-5-methylhexyl]-2(R)-[(2-amino-4-thiazolyl)methyl]butanediamide], it took 1 nM to reach half-maximal inhibition (IC50).
The value for `CC(C)C[C@H](O)[C@H](O)[C@H](CC1CCCCC1)NC(=O)[C@@H](CC(=O)N(CC(=O)N(C)CCc1cccnc1)CC1CCCCC1)Cc1csc(N)n1` [Compound 76, N^4-(cyclohexylmethyl)-N^4 -{2-{methyl[2-(3-pyridinyl)ethyl]-amino}-2-oxoethyl}-N^1-[1(S)-(cyclohexylmethyl)-2(R),3(S)-dihydroxy-5-methylhexyl]-2(R)-[(2-amino-4-thiazolyl)methyl]butanediamide] was 0.4 nM.
The value for `CC(C)CC[C@H](O)[C@H](CC1CCCCC1)NC(=O)[C@@H](CC(=O)N(CC(=O)N(C)CCc1ccccn1)CC1CCCCC1)Cc1csc(N)n1` [Compound 77, N^4-(cyclohexylmethyl)-N^4 -{2-{methyl[2-(2-pyridinyl)ethyl]-amino}-2-oxoethyl}-N^1-[1(S)-(cyclohexylmethyl)-2(S)-hydroxy-5-methylhexyl]-2(R)-[(2-amino-4-thiazolyl)methyl]butanediamide] was 36 nM; that for `CC(C)C[C@H](O)[C@H](O)[C@H](CC1CCCCC1)NC(=O)[C@@H](CC(=O)N(CC(=O)N(C)C)CC1CCCCCC1)Cc1csc(N)n1` [Compound 78, N^4-(cycloheptylmethyl)-N^4-[2-(dimethylamino)-2-oxoethyl]-N^1-[1(S)-(cyclohexylmethyl)-2(R),3(S)-dihydroxy-5-methylhexyl]-2(R)-[(2-amino-4-thiazolyl)methyl]butanediamide] was 0.6 nM; that for `CC(C)C[C@H](O)[C@H](O)[C@H](CC1CCCCC1)NC(=O)[C@@H](CC(=O)N(CC(=O)N(C)CCc1ccccn1)Cc1ccco1)Cc1csc(N)n1` [Compound 79, N^4-(2-furanylmethyl)-N^4 -{2-{methyl-[2-(2-pyridinyl)ethyl)amino}-2-oxoethyl}-N^1-[1(S)-(cyclohexylmethyl)-2(R),3(S)-dihydroxy-5-methylhexyl]-2(R)-[(2-amino-4-thiazolyl)-methyl]butanediamide] was 1 nM.
